From US7989632B2, “Crystalline forms of solvated ilaprazole” (Il Yang Pharmaceutical Company, Ltd., priority 2006, dated 2011)

Key:
[1] = Dynamic Vapor Sorption/Desorption (DVS) isotherm; type: physicochemical; details: for DVS weight loss at 5% RH: samples not dried prior to analysis; for DVS weight loss from 95 to 5% RH: desorption
Protocol: Dynamic Vapor Sorption/Desorption (DVS): Data were collected on a VTI SGA-100 moisture balance system. For sorption isotherms, a sorption range of 5 to 95% relative humidity (RH) and a desorption range of 95 to 5% RH in 10% RH increments were used for analysis. The samples were not dried prior to analysis. Equilibrium criteria used for analysis were less than 0.0100% weight change in 5 minutes with a maximum equilibration time of 3 hours if the weight criterion was not met. Data were not corrected for the initial moisture content of the samples.

[2] = system: gastric-acid related disorders; acid-related gastric and duodenal ulcers; test: Phase 2 clinical studies conducted with ilaprazole; type: in vivo, humans; details: at the doses studied
gastric acid = test: Phase 1 clinical studies conducted with ilaprazole; type: in vivo, humans; details: Phase 1, at the doses studied

Row | SMILES | DVS weight loss at 5% RH [1] | DVS weight loss from 95 to 5% RH [1] | DVS weight loss from 5 to 95% RH ([1]; sorption, 5 to 95% RH) | DVS weight gain from 5 to 95% RH ([1]; sorption, 5 to 95% RH) | healing of ulcers ([2]; Phase 2, acid-related gastric and duodenal ulcers) | symptomatic relief ([2]; Phase 2, patients with gastric-acid related disorders) | suppression of gastric acid (gastric acid)
1 | C1COCCO1.COc1ccnc(C[S+]([O-])c2nc3cc(-n4cccc4)ccc3[nH]2)c1C.COc1ccnc(C[S+]([O-])c2nc3cc(-n4cccc4)ccc3[nH]2)c1C (racemic) [Form C, crystalline 1,4-dioxane/racemic ilaprazole hemi-solvate] | ~1.2% | ~4.1% | ~1.1% | – | – | – | –
2 | C1CCOC1.COc1ccnc(C[S+]([O-])c2nc3cc(-n4cccc4)ccc3[nH]2)c1C.COc1ccnc(C[S+]([O-])c2nc3cc(-n4cccc4)ccc3[nH]2)c1C (racemic) [Form D, crystalline THF/racemic ilaprazole hemisolvate] | ~0.6% | ~1.2% | – | ~0.6% | – | – | –
3 | COc1ccnc(C[S+]([O-])c2nc3cc(-n4cccc4)ccc3[nH]2)c1C (stereo not drawn) [ilaprazole, 2[[(4-methoxy-3-methyl-2-pyridinyl)-methyl]sulfinyl]-5-(1H-pyrrol-1-yl) 1H-Benzimidazole] | – | – | – | – | promoted rapid healing | provided symptomatic relief | suppression of gastric acid occurs over a 24-hour period
